SMILES strings stand for the structures.

T1 sequence (Q9BUB5 1-424 isoform Q9BUB5-2 T344D): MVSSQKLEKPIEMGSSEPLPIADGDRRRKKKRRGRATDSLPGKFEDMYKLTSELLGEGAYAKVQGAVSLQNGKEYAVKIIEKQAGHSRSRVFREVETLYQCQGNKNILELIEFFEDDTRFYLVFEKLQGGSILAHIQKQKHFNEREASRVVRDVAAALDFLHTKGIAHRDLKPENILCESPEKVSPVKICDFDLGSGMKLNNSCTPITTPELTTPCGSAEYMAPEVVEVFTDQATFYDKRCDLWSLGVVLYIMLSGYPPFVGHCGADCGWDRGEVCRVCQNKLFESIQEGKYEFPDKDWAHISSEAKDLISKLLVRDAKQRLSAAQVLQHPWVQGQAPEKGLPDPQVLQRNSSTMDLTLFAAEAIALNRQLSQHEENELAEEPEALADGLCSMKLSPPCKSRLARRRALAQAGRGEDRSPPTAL

The test concerns the target T1, human full-length MKNK1 (Homo sapiens, UniProt Q9BUB5, T385D).
T1 construct: purchased Carna Biosciences 02-145; host or cells: insect cells, baculovirus expression system
The experiment in a line: MKNK1 kinase high ATP assay (TR-FRET). The test is classed as biochemical. Conditions: high ATP (2 mM), 15 min preincubation with enzyme, GST-MKNK1 (T344D). The method in brief: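 GST-tagged full-length human MKNK1 (aa 1-424, T344D), baculovirus-expressed, preincubated 15 min with compound, then reacted 30 min at 22 °C with 2 mM ATP and 0.06 µM biotinylated peptide (final).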
(Time-resolved FRET reads energy transfer from a long-lived donor to a nearby acceptor.)
The compound `O=c1[nH]c2ccc(Nc3ncnc4[nH]c5c(c34)CCCC5)cc2s1` [Example 117] returned an IC50 of 58 nM.
For the compound `O=C(NCc1cccc(C(F)(F)F)c1)C1CCc2[nH]c3ncnc(N4CCc5ccccc54)c3c2C1` (racemic) [Example 210, (RS)-4-(2,3-Dihydro-1H-indol-1-yl)-N-[3-(trifluoromethyl)benzyl]-6,7,8,9-tetrahydro-5H-pyrimido[4,5-b]indole-6-carboxamide], the IC50 was ≥ 20000 nM.
To `COCC1(OC)CCc2[nH]c3ncnc(Nc4ccc(F)cc4OC4CCCC4)c3c2C1` (racemic) [Example 134] belongs 1650 nM; to `COP(C)(=O)c1ccc(Nc2ncnc3[nH]c4c(c23)CC(C(=O)NCCCS(C)(=O)=O)CC4)cc1` (racemic) [Example 64, (RS)-Methyl methyl{4-[(6-{[3-(methylsulfonyl)propyl]carbamoyl}-6,7,8,9-tetrahydro-5H-pyrimido[4,5-b]indol-4-yl)amino]phenyl}phosphinate], 19700 nM; to `CC(C)Oc1ccc(Br)cc1Nc1ncnc2[nH]c3c(c12)CCCC3` [Example 127], 6270 nM.
To `CS(=O)(=O)CCCNC(=O)C1CCc2[nH]c3ncnc(Nc4cc5cn[nH]c5cc4F)c3c2C1` (racemic) [Example 61, (RS)-4-[(6-Fluoro-1H-indazol-5-yl)amino]-N-[3-(methylsulfonyl)propyl]-6,7,8,9-tetrahydro-5H-pyrimido[4,5-b]indole-6-carboxamide] belongs 17 nM; to `CC(C)Oc1cc(F)ccc1Nc1ncnc2[nH]c3c(c12)CC(C(=O)NCCCS(C)(=O)=O)CC3` (racemic) [Example 28, (RS)-4-{[4-Fluoro-2-(propan-2-yloxy)phenyl]amino}-N-[3-(methylsulfonyl)propyl]-6,7,8,9-tetrahydro-5H-pyrimido[4,5-b]indole-6-carboxamide], 8 nM; to `CCNC(=O)C1CCc2[nH]c3ncnc(Nc4cc5cn[nH]c5cc4OC)c3c2C1` (racemic) [Example 218, (RS)—N-Ethyl-4-[(6-methoxy-1H-indazol-5-yl)amino]-6,7,8,9-tetrahydro-5H-pyrimido[4,5-b]indole-6-carboxamide], 6 nM.
Turning to `CC1(C)Cc2cccc(Nc3ncnc4[nH]c5c(c34)CC(C(=O)NCCCS(C)(=O)=O)CC5)c2O1` (racemic) [Example 80, (RS)-4-[(2,2-Dimethyl-2,3-dihydro-1-benzofuran-7-yl)amino]-N-[3-(methylsulfonyl)propyl]-6,7,8,9-tetrahydro-5H-pyrimido[4,5-b]indole-6-carboxamide], the IC50 is 494 nM.
In turn, `COc1cc(Cl)c(Cl)cc1Nc1ncnc2[nH]c3c(c12)CC(C(=O)NC1CC1)CC3` (racemic) [Example 20, (RS)—N-Cyclopropyl-4-[(4,5-dichloro-2-methoxyphenyl)amino]-6,7,8,9-tetrahydro-5H-pyrimido[4,5-b]indole-6-carboxamide] yielded a half-inhibitory concentration (IC50) of 6 nM.
In the case of `COc1ccc(Cl)cc1Nc1ncnc2[nH]c3c(c12)CC(C(=O)NCCCS(C)(=O)=O)CC3` (racemic) [Example 149, (RS)-4-[(5-Chloro-2-methoxyphenyl)amino]-N-[3-(methylsulfonyl)propyl]-6,7,8,9-tetrahydro-5H-pyrimido[4,5-b]indole-6-carboxamide], the IC50 is 10 nM. Compared with the last compound, the IC50 is about 1.7-fold higher.
On to `COCC1(OC)CCc2[nH]c3ncnc(Nc4cc5cn[nH]c5cc4OC)c3c2C1` (racemic) [Example 136], for which half-maximal inhibition (IC50) was put at 48 nM. Compared with the last compound, the IC50 is about 4.8-fold higher.
To `CNC(=O)C1CCc2[nH]c3ncnc(N4CCc5ccccc54)c3c2C1` (racemic) [Example 212, (RS)-4-(2,3-Dihydro-1H-indol-1-yl)-N-methyl-6,7,8,9-tetrahydro-5H-pyrimido[4,5-b]indole-6-carboxamide] belongs 910 nM; to `COc1cc2[nH]c(=O)sc2cc1Nc1ncnc2[nH]c3c(c12)CC(F)(F)CC3` [Example 238, 6-[(6,6-Difluoro-6,7,8,9-tetrahydro-5H-pyrimido[4,5-b]indol-4-yl)amino]-5-methoxy-1,3-benzothiazol-2(3H)-one], 10 nM; to `O=C(O)C1CCc2[nH]c3ncnc(Nc4ccc(F)cc4OCCO)c3c2C1` (racemic) [Example 182, (RS)-4-{[4-Fluoro-2-(2-hydroxyethoxy)phenyl]amino}-6,7,8,9-tetrahydro-5H-pyrimido[4,5-b]indole-6-carboxylic acid], 251 nM.
As for `CCNC(=O)C1CCc2[nH]c3ncnc(Nc4ccccc4N4CCOCC4)c3c2C1` (racemic) [Example 201, (RS)—N-Ethyl-4-{[2-(morpholin-4-yl)phenyl]amino}-6,7,8,9-tetrahydro-5H-pyrimido[4,5-b]indole-6-carboxamide], the IC50 was 215 nM.
To `CS(=O)(=O)CCCNC(=O)C1CCc2[nH]c3ncnc(Nc4cccc(F)c4F)c3c2C1` (racemic) [Example 77, (RS)-4-[(2,3-Difluorophenyl)amino]-N-[3-(methylsulfonyl)propyl]-6,7,8,9-tetrahydro-5H-pyrimido[4,5-b]indole-6-carboxamide] belongs 3630 nM.
On to `COc1cccc(C)c1Nc1ncnc2[nH]c3c(c12)CC(C(=O)NCCCS(C)(=O)=O)CC3` (racemic) [Example 75, (RS)-4-[(2-Methoxy-6-methylphenyl)amino]-N-[3-(methylsulfonyl)propyl]-6,7,8,9-tetrahydro-5H-pyrimido[4,5-b]indole-6-carboxamide], for which the IC50 amounted to 7670 nM.
To `CCNC(=O)C1CCc2[nH]c3ncnc(Nc4cc(Cl)c(Cl)cc4OC)c3c2C1` (racemic) [Example 21, (RS)-4-[(4,5-Dichloro-2-methoxyphenyl)amino]-N-ethyl-6,7,8,9-tetrahydro-5H-pyrimido[4,5-b]indole-6-carboxamide] belongs 12 nM; to `CS(=O)(=O)CCCNC(=O)C1CCc2[nH]c3ncnc(Nc4ccc5[nH]ncc5c4)c3c2C1` (racemic) [Example 14, (RS)-4-(1H-Indazol-5-ylamino)-N-[3-(methylsulfonyl)propyl]-6,7,8,9-tetrahydro-5H-pyrimido[4,5-b]indole-6-carboxamide], 8 nM; to `COc1cc2[nH]ncc2cc1Nc1ncnc2[nH]c3c(c12)CC(F)(F)CC3` [Example 141], 6 nM.
To `O=c1[nH]c2ccc(Nc3ncnc4[nH]c5c(c34)CCCC5)cc2[nH]1` [Example 115] belongs 1790 nM; to `CC(C)Oc1cc(F)ccc1Nc1ncnc2[nH]c3c(c12)CN(Cc1ccccc1)CC3` [Example 8, 6-Benzyl-N-(4-fluoro-2-isopropoxyphenyl)-6,7,8,9-tetrahydro-5H-pyrido[3′,4′:4,5]pyrrolo[2,3-d]pyrimidin-4-amine], 2940 nM.
To `COc1ccc(N(C)C)cc1Nc1ncnc2[nH]c3c(c12)CC(C(=O)NCCCS(C)(=O)=O)CC3` (racemic) [Example 158, (RS)-4-{[5-(Dimethylamino)-2-methoxyphenyl]amino}-N-[3-(methylsulfonyl)propyl]-6,7,8,9-tetrahydro-5H-pyrimido[4,5-b]indole-6-carboxamide] belongs ≥ 20000 nM.
Turning to `CCNC(=O)C1CCc2[nH]c3ncnc(Nc4ccccc4OC4CCCC4)c3c2C1` (racemic) [Example 190, (RS)-4-{[2-(Cyclopentyloxy)phenyl]amino}-N-ethyl-6,7,8,9-tetrahydro-5H-pyrimido[4,5-b]indole-6-carboxamide], it took 88 nM to reach half-maximal inhibition (IC50).
On to `O=C(NCc1ccccc1)C1CCc2[nH]c3ncnc(N4CCc5ccccc54)c3c2C1` (racemic) [Example 209, (RS)—N-Benzyl-4-(2,3-dihydro-1H-indol-1-yl)-6,7,8,9-tetrahydro-5H-pyrimido[4,5-b]indole-6-carboxamide], for which the IC50 was 450 nM.
To `CS(=O)(=O)CCCNC(=O)C1CCc2[nH]c3ncnc(Nc4ccc5[nH]c(=O)sc5c4)c3c2C1` (racemic) [Example 29, (RS)—N-[3-(Methylsulfonyl)propyl]-4-[(2-oxo-2,3-dihydro-1,3-benzothiazol-6-yl)amino]-6,7,8,9-tetrahydro-5H-pyrimido[4,5-b]indole-6-carboxamide] belongs 14 nM; to `CC(C)Oc1ccc(Cl)cc1Nc1ncnc2[nH]c3c(c12)CC(C(=O)O)CC3` (racemic) [Example 234, (RS)-4-{[5-Chloro-2-(propan-2-yloxy)phenyl]amino}-6,7,8,9-tetrahydro-5H-pyrimido[4,5-b]indole-6-carboxylic acid], 288 nM.
To `COCC1(OC)CCc2[nH]c3ncnc(Nc4cc(Cl)ccc4OC)c3c2C1` (racemic) [Example 133] belongs 205 nM; to `CCNC(=O)C1CCc2[nH]c3ncnc(Nc4cc(F)ccc4OC)c3c2C1` (racemic) [Example 194, (RS)—N-Ethyl-4-[(5-fluoro-2-methoxyphenyl)amino]-6,7,8,9-tetrahydro-5H-pyrimido[4,5-b]indole-6-carboxamide], 159 nM.
To `O=C(Nc1ccccc1)C1CCc2[nH]c3ncnc(Nc4ccc5[nH]ncc5c4)c3c2C1` (racemic) [Example 16, (RS)-4-(1H-Indazol-5-ylamino)-N-phenyl-6,7,8,9-tetrahydro-5H-pyrimido[4,5-b]indole-6-carboxamide] belongs 15 nM; to `c1ccc(CN2CCc3[nH]c4ncnc(Nc5ccc6[nH]ncc6c5)c4c3C2)cc1` [Example 24, 6-Benzyl-N-(1H-indazol-5-yl)-6,7,8,9-tetrahydro-5H-pyrido[3′,4′:4,5]pyrrolo[2,3-d]pyrimidin-4-amine], 367 nM.
The compound `CS(=O)(=O)CCCNC(=O)C1CCc2[nH]c3ncnc(Nc4ccccc4OCC4CC4)c3c2C1` (racemic) [Example 151, (RS)-4-{[2-(Cyclopropylmethoxy)phenyl]amino}-N-[3-(methylsulfonyl)propyl]-6,7,8,9-tetrahydro-5H-pyrimido[4,5-b]indole-6-carboxamide] displayed an IC50 of 190 nM.
To `COc1cc2[nH]ncc2cc1Nc1ncnc2[nH]c3c(c12)CC(C(=O)NCc1cccc(C(F)(F)F)c1)CC3` (racemic) [Example 220, (RS)-4-[(6-Methoxy-1H-indazol-5-yl)amino]-N-[3-(trifluoromethyl)benzyl]-6,7,8,9-tetrahydro-5H-pyrimido[4,5-b]indole-6-carboxamide] belongs 3 nM.

Usually IC50 stands for the concentration that inhibits the measured activity by half. A higher IC50 goes with weaker potency in that assay.
